Source: patent publication US20100048462A1, “TRUNCATED PTH PEPTIDES WITH A CYCLIC CONFORMATION” (Zealand Pharma A/S, priority 2006, published 2010)
Bridge positions count the residues as written; N and C are the ends. Square brackets hold non-standard residues; d marks the D form. Peptide text beside a SMILES is read from it. hArg = N=C(N)NCCCC[C@H](N)C(=O)O; Ac5c = NC1(C(=O)O)CCCC1; Aib = CC(C)(N)C(=O)O

Key:
PTH1R = target: T1, PTH1R (Homo sapiens, UniProt Q03431); conditions: cited from earlier work
T1 sequence (Q03431 27-593): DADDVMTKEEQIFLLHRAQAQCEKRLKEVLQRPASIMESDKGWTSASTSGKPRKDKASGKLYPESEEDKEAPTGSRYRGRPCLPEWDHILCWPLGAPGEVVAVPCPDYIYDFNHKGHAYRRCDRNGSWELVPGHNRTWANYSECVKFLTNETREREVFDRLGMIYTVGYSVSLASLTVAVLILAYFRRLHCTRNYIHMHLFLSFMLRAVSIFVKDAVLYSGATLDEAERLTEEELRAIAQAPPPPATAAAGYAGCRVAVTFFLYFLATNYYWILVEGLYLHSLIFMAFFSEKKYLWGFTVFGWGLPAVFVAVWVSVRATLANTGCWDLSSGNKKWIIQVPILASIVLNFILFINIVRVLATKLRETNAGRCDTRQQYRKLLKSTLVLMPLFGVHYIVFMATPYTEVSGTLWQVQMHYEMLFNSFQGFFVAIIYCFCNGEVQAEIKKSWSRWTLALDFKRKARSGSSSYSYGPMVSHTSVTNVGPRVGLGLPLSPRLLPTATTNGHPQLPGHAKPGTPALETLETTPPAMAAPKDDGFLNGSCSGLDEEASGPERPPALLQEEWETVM

ovariectomized rats = conditions: cited from earlier work; for bone-anabolic activity: ovariectomized rats
CYP2D6 = CYP2D6 (Homo sapiens, UniProt P10635); assay: CYP2D6 inhibition in pooled human liver microsomes; assay type: in vitro ADME; design: Pooled human liver microsomes (HLM, final concentration 0.05 mg protein/mL); tissue BD Biosciences 452161; host or cells: pooled human liver microsomes; conditions: 10 μM compound, dextrorphan formation rate
CYP2D6, sequence (P10635 whole entry): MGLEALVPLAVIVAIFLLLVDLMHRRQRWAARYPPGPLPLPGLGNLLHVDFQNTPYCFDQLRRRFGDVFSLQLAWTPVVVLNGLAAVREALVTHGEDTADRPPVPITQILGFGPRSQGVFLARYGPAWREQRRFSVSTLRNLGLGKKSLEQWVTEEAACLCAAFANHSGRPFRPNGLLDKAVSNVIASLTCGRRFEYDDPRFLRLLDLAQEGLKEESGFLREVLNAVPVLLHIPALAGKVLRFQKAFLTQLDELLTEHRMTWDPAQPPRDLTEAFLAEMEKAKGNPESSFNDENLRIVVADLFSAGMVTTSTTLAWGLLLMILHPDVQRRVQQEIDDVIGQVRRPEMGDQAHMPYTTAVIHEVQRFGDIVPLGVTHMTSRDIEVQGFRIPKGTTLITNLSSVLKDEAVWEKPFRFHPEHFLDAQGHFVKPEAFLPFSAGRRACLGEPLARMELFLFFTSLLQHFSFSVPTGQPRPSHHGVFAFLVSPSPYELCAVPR
How it was run: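 Pooled HLM (0.05 mg/mL) in 0.1 M KPi pH 7.4 with 5 μM dextromethorphan and 10 μM test compound, preincubated 5 min at 37 °C, then started with NADPH-regenerating system for 5 min. Dextrorphan quantified by LC/MS/MS; activity expressed as % of vehicle; <70% considered significant.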

PTH receptor 1 = target: T2, PTH receptor 1 (Mus musculus, UniProt P41593); assay: MC3T3-E1 cAMP efficacy assay; assay type: cell-based, murine; conditions: MC3T3-E1 cells; for EC50: cAMP, 100 μM IBMX, 37° C.; for Emax ± SEM [pmol/well]: maximally inducible cAMP
T2 construct: host or cells: MC3T3-E1 subclone 4
T2 sequence (P41593 27-591): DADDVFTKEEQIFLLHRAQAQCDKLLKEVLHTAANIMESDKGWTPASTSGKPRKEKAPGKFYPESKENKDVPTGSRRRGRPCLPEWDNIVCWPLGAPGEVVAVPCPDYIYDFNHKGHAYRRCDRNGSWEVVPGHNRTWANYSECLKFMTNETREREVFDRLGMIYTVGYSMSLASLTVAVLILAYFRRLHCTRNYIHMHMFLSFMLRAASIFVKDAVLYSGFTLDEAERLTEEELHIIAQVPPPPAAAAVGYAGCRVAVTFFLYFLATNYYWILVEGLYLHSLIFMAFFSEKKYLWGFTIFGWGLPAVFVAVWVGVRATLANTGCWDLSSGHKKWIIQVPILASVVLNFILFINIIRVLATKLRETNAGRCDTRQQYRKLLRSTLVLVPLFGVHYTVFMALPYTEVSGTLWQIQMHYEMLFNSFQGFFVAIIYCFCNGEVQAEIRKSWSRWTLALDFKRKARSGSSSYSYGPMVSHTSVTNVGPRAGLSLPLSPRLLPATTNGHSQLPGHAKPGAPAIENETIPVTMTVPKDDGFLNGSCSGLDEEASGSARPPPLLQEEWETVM
Experimental: MC3T3-E1 cells were seeded at 10,000 cells/well in 96-microtiter plates and grown overnight before the efficacy assays. On the day of analysis the growth medium was carefully removed by suction. Cells were washed once with 200 μl TB/0.1% […]. The buffer was replaced with 100 μl reaction mixture (±test peptide, +100 μM IBMX) and incubated at 37° C. for 13 min. The reaction was stopped by addition of 25 μl of ice-cold 0.5 M HCl. Cells were in the following incubated on ice for 60 min. 75 μl acetate-buffer were added to each well in a 96-well cAMP FlashPlate. […] FlashPlates were incubated overnight at 4° C., emptied by suction and counted in a TopCounter.
Determinations were performed in triplicates at all doses. Standards were included as single determinations, duplicates or triplicates in each experiment, preferentially on each plate.
Efficacy was evaluated in the concentration range from […].
Concentration-dependent cAMP responses were imported into GraphPad Prism vers. 4, transformed and plotted. Curves were fitted with a function for sigmoidal dose response curve non-linear fit Y=Bottom+(Top-Bottom)/(1+10̂((LogEC50-X))) where X is the logarithm of concentration and Y is the response. Y starts at Bottom and goes to Top with a sigmoid shape. pEC50 and the maximally inducible concentration of cAMP were evaluated. Overall statistical differences were analyzed using one-way ANOVA. Post-hoc comparisons were made by the use of Fisher's Least Significance Test. Results were considered significant, when p was lower than 0.05.

Saos-2 PTH1R = target: T3, Saos-2 PTH1R (Homo sapiens, UniProt Q03431); assay: cAMP-efficacy assay in Saos-2 cells; assay type: cell-based; conditions: for EC50: cAMP, 100 μM IBMX, 37° C. 15 min, suffix of label = salt tested; for Emax ± SEM: relative effect to the control (SEQ ID NO: 32)
T3 construct: endogenous in cells; host or cells: Saos-2
T3 sequence (Q03431 27-593): T1 sequence (Q03431 27-593)
How it was run: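 Saos-2 cells, grown two days after seeding at 50,000 cells/well, were exposed to peptide for 15 min at 37 °C in Tyrode's buffer with 0.1% BSA and 100 μM IBMX. After stopping with cold HCl, cAMP was measured by radioimmunoassay FlashPlate. EC50, pEC50, Hill slope and Emax came from a four-parameter sigmoidal fit.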

| Compound | activation of the PTH1R in vitro (PTH1R) | bone-anabolic activity (ovariectomized rats) | CYP2D6 activity (% of vehicle) (CYP2D6; listed as 42) | CYP2D6 activity (% of vehicle) (CYP2D6; listed as SEQ ID NO:42) | EC50 (PTH receptor 1) | Emax ± SEM [pmol/well] (PTH receptor 1) | EC50 (Saos-2 PTH1R) | Emax ± SEM (Saos-2 PTH1R) | bone-anabolic activity, fold less potent than PTH(1-34) (ovariectomized rats; ovariectomized rat model) | CYP2D6 activity (% of vehicle) (CYP2D6) |
| --- | --- | --- | --- | --- | --- | --- | --- | --- | --- | --- |
| [Aib^1.3, Phe^7, Nle^8, Arg^11, Ala^12, Trp^14]PTH(1-14) | activated the PTH1R in vitro | did not exhibit any bone-anabolic activity |  |  |  |  |  |  |  |  |
| CC[C@H](C)[C@H](NC(=O)[C@H](CCC(=O)O)NC(=O)C(C)(C)NC(=O)[C@@H](NC(=O)C1(N)CCCC1)C(C)C)C(=O)N[C@@H](CCC(N)=O)C(=O)N[C@@H](CC(C)C)C(=O)N[C@@H](CCSC)C(=O)N[C@@H](Cc1c[nH]cn1)C(=O)N[C@@H](CCC(N)=O)C(=O)N[C@@H](CCCCNC(=N)N)C(=O)N[C@@H](C)C(=O)N[C@@H](CCCCN)C(=O)N[C@@H](Cc1c[nH]c2ccccc12)C(=O)N[C@@H](CC(C)C)C(=O)N[C@@H](CC(N)=O)C(=O)N[C@@H](CC(=O)O)C(N)=O [SEQ ID NO: 42, H-Ac5c-Val-Aib-Glu-Ile-Gln-Leu-Met-His-Gln-Har-Ala-Lys-Trp-Leu-Asn-Asp-NH2] (H-[Ac5c]V[Aib]EIQLMHQ[hArg]AKWLND-NH2) |  |  | 29 % of vehicle | 29 % of vehicle | 6.31 nM | 5.7 ± 1.0 pmol/well | 20.9 nM | 1.03 ± 0.07 |  |  |
| PTH(1-29): truncated PTH fragment from the literature (Murrills et al. 2004) (SVSEIQLMHNLGKHLNSMERVEWLRKKLQ; Parathyroid hormone; UniProt P01270 32-60, looked up, fragment) |  |  |  |  |  |  |  |  | approximately 20 fold |  |
| CC[C@H](C)[C@H](NC(=O)[C@H](CCC(=O)O)NC(=O)C(C)(C)NC(=O)[C@@H](NC(=O)C1(N)CCCC1)C(C)C)C(=O)N[C@@H](CCC(N)=O)C(=O)N[C@@H](CC(C)C)C(=O)N[C@@H](CCSC)C(=O)N[C@@H](Cc1c[nH]cn1)C(=O)N[C@@H](CCC(N)=O)C(=O)N[C@@H](CCCCNC(=N)N)C(=O)N[C@@H](C)C(=O)N[C@@H](CCCCN)C(=O)N[C@@H](Cc1c[nH]c2ccccc12)C(N)=O [SEQ ID NO: 31, H-Ac5c-Val-Aib-Glu-Ile-Gln-Leu-Met-His-Gln-Har-Ala-Lys-Trp-NH2, reference compound] (H-[Ac5c]V[Aib]EIQLMHQ[hArg]AKW-NH2) |  |  |  |  | 3.98 nM | 4.5 ± 1.0 pmol/well | 21.9 nM | 1.07 ± 0.04 |  | 22 % of vehicle |
| [Ala^1.3, Nle^8, Gln^10, Har^11, Trp^14, Arg^19, Tyr^21]rPTH(1-21) [MPTH(1-21)] |  | inactive |  |  |  |  |  |  |  |  |
| CC[C@H](C)[C@H](NC(=O)[C@H](CCC(=O)O)NC(=O)C(C)(C)NC(=O)[C@@H](NC(=O)C1(N)CCCC1)C(C)C)C(=O)N[C@@H](CCC(N)=O)C(=O)N[C@@H](CC(C)C)C(=O)N[C@@H](CCSC)C(=O)N[C@@H](Cc1c[nH]cn1)C(=O)N[C@@H](CCC(N)=O)C(=O)N[C@@H](CCCCNC(=N)N)C(=O)N[C@@H](C)C(=O)N[C@@H](CCCCN)C(=O)N[C@@H](Cc1c[nH]c2ccccc12)C(=O)N[C@@H](CC(C)C)C(=O)N[C@@H](CC(N)=O)C(=O)N[C@@H](CC(N)=O)C(N)=O [SEQ ID NO: 3, H-Ac5c-Val-Aib-Glu-Ile-Gln-Leu-Met-His-Gln-Har-Ala-Lys-Trp-Leu-Asn-Asn-NH2] (H-[Ac5c]V[Aib]EIQLMHQ[hArg]AKWLNN-NH2) |  |  |  |  | 2.51 nM | 5.5 ± 0.9 pmol/well | 9.12 nM | 1.06 ± 0.06 |  | 21 % of vehicle |
| CC[C@H](C)[C@H](NC(=O)[C@H](CCC(=O)O)NC(=O)C(C)(C)NC(=O)[C@@H](NC(=O)C1(N)CCCC1)C(C)C)C(=O)N[C@@H](CCC(N)=O)C(=O)N[C@@H](CC(C)C)C(=O)N[C@@H](CCSC)C(=O)N[C@@H](Cc1c[nH]cn1)C(=O)N[C@@H](CCC(N)=O)C(=O)N[C@@H](CCCCNC(=N)N)C(=O)N[C@@H](C)C(=O)N[C@H]1CCCCNC(=O)C[C@@H](C(N)=O)NC(=O)[C@H](CC(C)C)NC(=O)[C@H](Cc2c[nH]c3ccccc23)NC1=O [SEQ ID NO: 30, H-Ac5c-Val-Aib-Glu-Ile-Gln-Leu-Met-His-Gln-Har-Ala-Lys( )-Trp-Leu-Asp( )-NH2] (H-[Ac5c]V[Aib]EIQLMHQ[hArg]AKWLD-NH2; lactam 13-16) |  |  |  |  | 10 nM | 5.0 ± 0.2 pmol/well | 81.3 nM | 1.04 ± 0.05 |  | 83 % of vehicle |
